What was measured:
[1] = system: antigène du virus de l'hépatite B (AgHBs); experiment: In vitro degradation of hepatitis B virus antigen (AgHBs): virucide + patient human serum (1/1000); format: biochemical; details: Bardac® 0,2 %
Excerpt: I - Action sur la dégradation in vitro de l'antigène du virus de l'hépatite B (AgHBs) du virus de l'hépatite B : virucide + sérum humain de malade (1/1000ème).

[2] = system: virus HBV; experiment: In vivo protection test in ducks (I.V.), inoculum 2.10^7 vge/canard; details: Bardac® 0,1 %, voie I.V.
Excerpt: II - Essais in vivo chez le canard (voie I.V.).
• Bardac® 0,02 % (dose 100 fois inférieure à celle qui est efficace in vitro pour le Bardac® seul) - CHG 0,025 % contre un inoculum à 2.10^7 vge/canard protège 3/3 canards (figure 2). • Bardac® 0,1 % (dose 5 fois plus forte que dans une composition conforme à l'invention pour obtenir une protection équivalente) contre un inoculum à 2.10^7 vge/canard (vge = viral genoma equivalent) protège 4/4 canards (figure 3).
La figure 1 correspond à un témoin d'infection : 4/4 canards inoculés avec 2.10^7 vge développent une virémie dont le pic se situe entre 5 et 10 jours.

[3] = system: cellules fibroblastiques humaines; experiment: Cytotoxicity control of the products on human fibroblast cultures (10 tubes, 3 days); format: cell-based; details: pur et dilutions 10^-1 à 10^-3, 0,1 ml dans 1 ml
Excerpt: On réalise des contrôles de cytotoxicité des produits pour les cultures cellulaires utilisées dans les tests, c'est-à-dire les cellules fibroblastiques humaines.
Les cellules sont cultivées en milieu de Dulbecco enrichi en sérum de veau foetal à 10 %; au moment de leur utilisation, les cellules sont lavées et on utilise le même milieu de culture, mais dépourvu de sérum de veau.
Pour chaque produit testé ou chaque composition, on a utilisé 10 tubes de culture cellulaire et après inoculation du produit, les tubes ont été surveillés pendant trois jours.
Chaque produit a été successivement utilisé pur, et aux dilutions 10^-1, 10^-2, 10^-3 et ajouté aux tubes de culture contenant 1 ml de milieu nutritif, sous le volume de 0,1 ml.

[4] = system: S. aureus ATCC 6538; experiment: Growth inhibition test (DGHM, Essai 2, Tables A-C), 72 h at 37°C; non/A/B/C = without or with inactivating substances A, B, C; format: cell-based, Staphylococcus aureus; details: for concentration en substance active inhibant la croissance: antiseptique seul
Method: Un autre essai a été réalisé à partir des solutions suivantes : • 100 ml d'une solution à 0,1 % de digluconate de chlorhexidine (pH 6) et • 100 ml d'une solution à 0,1 % de Bardac 22®.
L'activité de ces solutions, seules ou en combinaison a été plus particulièrement testée vis-à-vis de Staphylococcus aureus ATCC 6538, Escherichia coli ATCC 11229 et Candida albicans ATCC 10231.
Les tests ont été réalisés conformément au protocole décrit dans le Chapitre I/2.1 et 2.2 de Richtlinien für die Prüfung und Bewertung chemischer Desinfektionsverfahren der DGHM, Stand 1.1., 1981).
Les Tableaux A, B et C illustrent respectivement l'activité bactéricide et fongicide d'une solution aqueuse à 0,1 % de digluconate de chlorhexidine, d'une solution aqueuse à 0,1 % de Bardac 22® et d'un mélange à part égale des deux composés. Les protocoles dont ces Tableaux illustrent les résultats comprennent une incubation de 72 heures à 37°C et l'utilisation, comme témoins, des substances inactivantes suivantes : A : Tween® 80 3 % + lécithine 0,3 % + cystéine 0,1 %; B : Tween® 80 3 % + saponine 3 % + cystéine 0,1 % + histidine 0,1 %; C : Tween® 80 3 % + lécithine 0,3 % + histidine 0,1 % + thiosulfate de sodium 0,5 %.
Dans ces Tableaux, le signe "+" indique une croissance et le signe "-" l'absence de croissance.

SMILES: CCCCCCCCCC[N+](C)(C)CCCCCCCCCC [Bardac®, chlorure de didécyldiméthylammonium]
- AgHBs résiduel (ratio) [1]: 1,35
- canards protégés [2]: 4/4
- toxicité pour les cultures cellulaires ([3]; solution à 0,04 %): non toxique à la dilution 10^-3
- croissance ([4]; Conc. 0,1 % (vol/vol), A): +
- croissance ([4]; Conc. 0,1 % (vol/vol), B): +
- croissance ([4]; Conc. 0,1 % (vol/vol), C): +
- croissance ([4]; Conc. 0,1 % (vol/vol), non): -
- croissance ([4]; Conc. 0,05 % (vol/vol), A): +
- croissance ([4]; Conc. 0,5 % (vol/vol), A): +
- croissance ([4]; Conc. 0,05 % (vol/vol), B): +
- croissance ([4]; Conc. 0,5 % (vol/vol), B): +
- croissance ([4]; Conc. 0,05 % (vol/vol), C): +
- croissance ([4]; Conc. 0,5 % (vol/vol), C): +
- croissance ([4]; Conc. 0,05 % (vol/vol), non): +
- croissance ([4]; Conc. 0,5 % (vol/vol), non): -
- croissance ([4]; Conc. 1,0 % (vol/vol), A): +
- croissance ([4]; Conc. 1,0 % (vol/vol), B): +
- croissance ([4]; Conc. 1,0 % (vol/vol), C): +
- croissance ([4]; Conc. 1,0 % (vol/vol), non): -
- croissance ([4]; Conc. 0,00625 % (vol/vol), A): +
- croissance ([4]; Conc. 0,00625 % (vol/vol), B): +
- croissance ([4]; Conc. 0,00625 % (vol/vol), C): +
- croissance ([4]; Conc. 0,00625 % (vol/vol), non): +
- croissance ([4]; Conc. 0,0125 % (vol/vol), A): +
- croissance ([4]; Conc. 0,0125 % (vol/vol), B): +
- croissance ([4]; Conc. 0,0125 % (vol/vol), C): +
- croissance ([4]; Conc. 0,0125 % (vol/vol), non): +
- croissance ([4]; Conc. 0,025 % (vol/vol), A): +
- croissance ([4]; Conc. 0,025 % (vol/vol), B): +
- croissance ([4]; Conc. 0,025 % (vol/vol), C): +
- croissance ([4]; Conc. 0,025 % (vol/vol), non): +
- concentration en substance active inhibant la croissance [4]: 0,0001%

SMILES: [H]/N=C(\N/C(=N/[H])NCCCCCCNC(=N)NC(=N)Nc1ccc(Cl)cc1)Nc1ccc(Cl)cc1 [Chlorhexidine, digluconate de chlorhexidine, reference compound]
- toxicité pour les cultures cellulaires ([3]; solution à 0,05 %): aucune toxicité
- croissance ([4]; Conc. 0,1 % (vol/vol), A): +
- croissance ([4]; Conc. 0,1 % (vol/vol), B): +
- croissance ([4]; Conc. 0,1 % (vol/vol), C): +
- croissance ([4]; Conc. 0,1 % (vol/vol), non): +
- croissance ([4]; Conc. 0,05 % (vol/vol), A): +
- croissance ([4]; Conc. 0,5 % (vol/vol), A): +
- croissance ([4]; Conc. 0,05 % (vol/vol), B): +
- croissance ([4]; Conc. 0,5 % (vol/vol), B): +
- croissance ([4]; Conc. 0,05 % (vol/vol), C): +
- croissance ([4]; Conc. 0,5 % (vol/vol), C): +
- croissance ([4]; Conc. 0,05 % (vol/vol), non): +
- croissance ([4]; Conc. 0,5 % (vol/vol), non): -
- croissance ([4]; Conc. 1,0 % (vol/vol), A): +
- croissance ([4]; Conc. 1,0 % (vol/vol), B): +
- croissance ([4]; Conc. 1,0 % (vol/vol), C): +
- croissance ([4]; Conc. 1,0 % (vol/vol), non): -
- croissance ([4]; Conc. 0,00625 % (vol/vol), A): +
- croissance ([4]; Conc. 0,00625 % (vol/vol), B): +
- croissance ([4]; Conc. 0,00625 % (vol/vol), C): +
- croissance ([4]; Conc. 0,00625 % (vol/vol), non): +
- croissance ([4]; Conc. 0,0125 % (vol/vol), A): +
- croissance ([4]; Conc. 0,0125 % (vol/vol), B): +
- croissance ([4]; Conc. 0,0125 % (vol/vol), C): +
- croissance ([4]; Conc. 0,0125 % (vol/vol), non): +
- croissance ([4]; Conc. 0,025 % (vol/vol), A): +
- croissance ([4]; Conc. 0,025 % (vol/vol), B): +
- croissance ([4]; Conc. 0,025 % (vol/vol), C): +
- croissance ([4]; Conc. 0,025 % (vol/vol), non): +
- concentration en substance active inhibant la croissance [4]: 0,0005%

Source: patent publication EP0555116B1, “Compositions based on antiseptics and their applications” (HUTCHINSON, priority 1992, dated 1993)
